Converted amounts (≈) assume the structure as drawn. Read-outs that look alike come from different tables or passages of the source.
Legend:
Southern Armyworm = assay: Southern armyworm test, third-instar larvae on treated Sieva lima bean leaves; type: in vivo, Spodoptera eridania (Cramer)
Outline: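 Sieva lima bean plants, primary leaves expanded to 1.91 cm, were dipped with agitation for three seconds in test material dissolved in 65% acetone, with further dilutions in acetone, then air-dried in a hood. A treated leaf was placed in a 9 cm petri dish on moist filter paper with 10 third-instar Spodoptera eridania larvae about 1 cm long. Dishes were covered and kept at 80° F. and 50% r.h. Mortality and feeding were assessed after two days.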

Tobacco Budworm = assay: Tobacco budworm LC50 and FD50 (instar not stated); type: in vivo, Heliothis virescens (Fabricus)
From the text: (§1) Test formulations and procedures used for evaluation are as follows:
FD50 = The concentration of insecticide required to reduce insect

[1] = tested on: Tobacco Budworm 3rd Instar; assay: Tobacco budworm secondary test, third-instar larvae on treated cotton cotyledons; type: in vivo, Heliothis virescens (Fabricus)
Procedure: Three cotton plants with just expanded cotyledons are dipped in 1000 ppm solution and placed in the hood to dry. When dry, each cotyledon is cut in half, and 10 are each placed in a 28 g plastic medicine cup containing a 1.25 cm dental wick saturated with water, and one third-instar budworm larva is added. The cup is capped and held for three days at 80° F., 50% relative humidity, after which mortality counts are made.

[2] = tested on: Tobacco Budworm 1st Instar; assay: Tobacco budworm initial test, treated eggs / newly hatched (1st instar) larvae on treated cotton leaves; type: in vivo, Heliothis virescens (Fabricus)
Procedure: as §1
A. 100 mg of the test material is weighed, placed in a funnel over a 113 g narrow-mouth bottle, rinsed into the bottle with a 35 mL scoop of acetone, followed by a 35 mL scoop of water and another 35 mL scoop of acetone to yield 1000 ppm in 65% acetone. If the material is not soluble, it is broken up with a glass rod and used as a suspension.
B. This stock solution ("A") is used to make 300 ppm solutions or suspensions by pipetting 30 mL of "A" into a bottle containing 70 mL of 50% acetone to yield 300 ppm. Further dilutions in 50% acetone are made as required.
C. Tests requiring 10 ppm acetone solutions: 1 mL of "A" is pipetted into 99 mL of acetone to yield 10 ppm. Additional dilutions are made using 50% acetone as required.
Tobacco Budworm--Heliothis virescens (Fabricus)
A cotton plant with two true leaves expanded is dipped for three seconds with agitation in 300 ppm solution. A 1.27 to 1.91 cm square of cheesecloth with about 50 to 100 budworm eggs 0-24 hours old is also dipped in the test solution and placed on a leaf of the cotton plant, all being placed in the hood to dry. The leaf with the treated budworm eggs is removed from the plant and placed in a 226 g Dixie cup with a wet 5 cm piece of dental wick and covered with a lid. The other leaf is placed in a similar cup with a wick and a piece of cheesecloth infested with 50-100 newly hatched larvae is added before covering the cup with a lid. After three days at 80° F., 50% relative humidity, observations of egg hatch are made, as well as kill of newly hatched larvae, any inhibition of feeding, or interference of any sort with normal development.

[3] = Spodoptera eridania; read-out: LC50 Southern Armyworm
[4] = Heliothis virescens; read-out: LC50 Tobacco Budworm
[5] = Heliothis virescens, read-out: LC50 Tobacco Budworm

Row | Structure (SMILES) | Mortality Rating Southern Armyworm (Southern Armyworm; 10 ppm, third-instar larvae) | Mortality Rating Southern Armyworm (Southern Armyworm; 100 ppm, third-instar larvae) | Mortality Rating Southern Armyworm (Southern Armyworm; 1000 ppm, third-instar larvae) | LC50 (Southern Armyworm; [3]) [µg/mL] | LC50 Southern Armyworm (Southern Armyworm; southern armyworm, in vivo) [ppm] | LC50 (Tobacco Budworm; [4]) [µg/mL] | Mortality Rating Tobacco Budworm 3rd Instar ([1]; 10 ppm) | Mortality Rating Tobacco Budworm 3rd Instar ([1]; 100 ppm) | Mortality Rating Tobacco Budworm 3rd Instar ([1]; 1000 ppm) | Mortality Rating Tobacco Budworm 1st Instar ([2]; 10 ppm) | Mortality Rating Tobacco Budworm 1st Instar ([2]; 100 ppm) | Mortality Rating Tobacco Budworm 1st Instar ([2]; 300 ppm) | LC50 (Tobacco Budworm; [5]) [µg/mL] | LC50 (Southern Armyworm; Spodoptera eridania, read-out: LC50 Southern Armyworm) [µg/mL]
1 | N=C(NN=Cc1ccc(C(F)(F)F)cc1)N(N=Cc1ccc(C(F)(F)F)cc1)C(=O)N1CCCC1 [CF3 / CF3 / (CH2)4] | 9 (100%) | 9 (100%) | 9 (100%) | 18 (≈ 36.1 µM) | 14 | 1000 (≈ 2010 µM) | 0 (No effect) | 4 (46-55%) | 9 (100%) | – | – | – | – | –
2 | CN(C)C(=O)N(N=Cc1ccc(C(F)(F)F)cc1)C(=N)NN=Cc1ccc(C(F)(F)F)cc1 [CF3 / CF3 / CH3 / CH3] | 8 (86-99%) | 9 (100%) | 9 (100%) | 15 (≈ 31.8 µM) | – | 96 (≈ 203 µM) | 0 (No effect) | 9 (100%) | 9 (100%) | 0 (No effect) | 6 (66-75%) | 8 (86-99%) | – | –
3 | N=C(NN=Cc1ccc(C(F)(F)F)cc1)N(N=Cc1ccc(C(F)(F)F)cc1)C(=O)NCCCl [CF3 / CF3 / ClCH2 CH2 / H, allophanimidic acid, 4-(2-chloroethyl)-2-{[p-(trifluoromethyl)benzylidene]amino}-allophanimidicacid [p-(trifluoromethyl)benzylidene]hydrazide] | – | 9 (100%) | 9 (100%) | – | – | – | – | 4 (46-55%) | 9 (100%) | – | – | 0 (No effect) | 654 (≈ 1290 µM) | –
4 | CN(C)C(=O)N(N=Cc1ccc(OC(F)(F)F)cc1)C(=N)NN=Cc1ccc(OC(F)(F)F)cc1 [CF3 O / CF3 O / CH3 / CH3] | 9 (100%) | 9 (100%) | 9 (100%) | – | – | 77 (≈ 153 µM) | – | 3 (36-45%) | 9 (100%) | – | – | – | – | –
5 | CN(C)C(=O)N(N=Cc1ccc(OC(F)(F)C(Cl)Cl)cc1)C(=N)NN=Cc1ccc(OC(F)(F)C(Cl)Cl)cc1 [HCCl2 CF2 O / HCCl2 CF2 O / CH3 / CH3] | – | 9 (100%) | 9 (100%) | 26 (≈ 41 µM) | – | 140 (≈ 221 µM) | – | 2 (26-35%) | 0 (No effect) | – | – | – | – | –
6 | CN(C)C(=O)N(N=Cc1ccc(OC(F)(F)C(F)F)cc1)C(=N)NN=Cc1ccc(OC(F)(F)C(F)F)cc1 [HCF2 CF2 O / HCF2 CF2 O / CH3 / CH3, 4,4-dimethyl-2-{[p-(1,1,2,2-tetrafluoroethoxy)benzylidene]amino}-allophanimidic acid [p-(1,1,2,2-tetrafluoroethoxy)benzylidene]hydrazide] | 0 (No effect) | 9 (100%) | 9 (100%) | – | – | – | – | 2 (26-35%) | 8 (86-99%) | – | 5 (56-65%) | 9 (100%) | 491 (≈ 864 µM) | 7 (≈ 12.3 µM)
7 | CN(C)C(=O)N(N=Cc1ccc(OC(F)(F)C(F)Cl)cc1)C(=N)NN=Cc1ccc(OC(F)(F)C(F)Cl)cc1 (stereo not drawn) [drawing 40 / drawing 41 / CH3 / CH3] | 9 (100%) | 9 (100%) | 9 (100%) | – | – | 201 (≈ 334 µM) | 0 (No effect) | 4 (46-55%) | 9 (100%) | – | – | – | – | –
